Two compounds from patent US7465471B2, “Palatability of aquaculture feed” (Novus International, Inc., priority 2003, dated 2008) can be followed below.

Assay [1] deals with E. coli. The format is cell-based. The note with it: for Δ log: Table 2, 4 h, initial 5.24. The method, then:
Colony counts were performed according to standard operating procedures.

The test system of the next assay is L. plantarum. The assay can be described thus: L. plantarum colony counts in broth (Example 1). Particulars: for Δ log: Table 3, 6 h, log sample − log initial (5.04). It is filed as cell-based. On the procedure: The fresh overnight culture of L. plantarum in brain heart infusion broth were used to inoculate medium 5. The test tubes were incubated under reduced oxygen atmosphere for 6 hours at 37° C. Colony counts were performed.

In the next assay the test system is C. jejuni. The assay can be described thus: C. jejuni colony counts in broth (Example 1). The note with it: for Δ log: Table 4, 6 h, initial 5.23. It is filed as cell-based. On the procedure:
C. jejuni grown on Campylobacter blood-free selective agar was used for inoculation. Preston broth was incubated under reduced oxygen atmosphere for 6 hours at 37° C. Colony counts were performed.

The subject of assay [2] is E. coli. Nature of the assay: E. coli colony counts over time in soy broth at pH 4 or 7.3 (Example 5). The format is cell-based. The note with it: FIG. 5. On the procedure:
The cultures were incubated, and colony counts performed at increasing times.

In another assay the test system is Lactobacillus plantarum. Nature of the assay: L. plantarum colony counts in broth at pH 3.5 (Example 16). The note with it: log 6 hours − log initial (5.61). The format is cell-based. The method, then:
Fresh overnight culture L. plantarum in Brain Heart Infusion broth is used to inoculate medium 5 at a log 4.1 cfu/mL at pH 3.5. The tubes are incubated under oxygen reduced atmosphere for 6 hours at 37° C. Colony counts are performed according standard procedures.

Another assay deals with S. enteritidis. Nature of the assay: S. enteritidis colony counts in broth (Examples 1-3, 17).
The test system of another assay is mold. Nature of the assay: Mold growth in starter mash by CO2 formation in headspace (Examples 7, 8). Particulars: for mold growth (CO2 in headspace), words: 0.2% in starter mash. On the procedure: Fungal growth in basal starter mash was studied in compositions supplemented with DLM or Alimet® as the methionine source. Total microbial growth was monitored by measuring carbon dioxide (CO2) formation in sealed vessels at 28° C. over time.
The technique of using a closed system and measuring CO2 formation has been verified as an approximation of the conditions found in grain storage bins. See, e.g., Muir et al., Trans. ASAE, 28(5) 1673-1675 (1985), the contents of which are hereby incorporated by reference in their entirety.
A mash starter mash feed (formulation shown in Table 9, below) was subdivided into three groups: basal (control), 0.2% DLM, or 0.2% Alimet®. The feed studied had no commercial mold inhibitors added, and is representative of a typical broiler feed.
Initial moisture of the feed was 10.8%. After the addition of Alimet® or DLM, the moisture of the samples was adjusted by the addition of 2%, 4%, or 6% sterile distilled water to promote mold growth, achieving three moisture groups: […].
For each study, four replicate samples of each moisture group were mixed, and 600 g of the mixture was placed into 1 L containers, sealed, and placed at 28° C. in a temperature-controlled room. Draeger Detector tubes (CO2-measuring, obtained from Fisher Scientific) were used to measure the developed CO2 at different days following vessel sealing (two measurements were made per week). Draeger Short-Term Detector Tubes are glass tubes filled with inert carrier and an indicating reagent. The reagent produces a colorimetric indication in the presence of a particular gas (CO2). The concentration of gas is read directly from the discoloration on the tube's printed scale.
The specific mold species present were not identified. Statistical analysis was accomplished by using Duncan's multiple range test (SAS). Different letters on individual time points in FIGS. 9-11 indicate statistical differences of P<0.05.
The experiment described above in Example 7 was repeated with blends of 2.0 lb/ton, 1.5 lb/ton, 1.0 lb/ton or 0.5 lb/ton of 65% propionic acid and either […]. The blends were prepared according to the matrix outlined in Table 8, below. The 65% propionic acid was buffered with ammonium hydroxide to a pH of 5.5.

Another assay deals with dogs. The assay can be described thus: No-choice acceptance of food, dogs (Example 24). It is filed as in vivo. The note with it: Canine. The source says:
(§1) Acceptance of food containing […]® or DLM was studied to evaluate dietary consumption under no-choice conditions. […] The urine pH of six of the cats was also monitored. The diets described in Tables 39 and 40 above were used.

In another assay the test system is cats. Nature of the assay: No-choice acceptance of food, cats (Example 24). The format is in vivo. The note with it: Feline.
Text: as §1

Where “and” joins values, the source holds several entries; their conditions need not be identical. Identical values can stand only once. Like-named read-outs stand apart in the source and are kept apart here.

In the case of `O=CO` [formic acid], the Δ log is on record as −0.05 in the assay with E. coli [1] (0.108 g/L, pH 4.5); 2.24 in the assay on E. coli [1] (0.108 g/L, pH 6.75); −0.28 with E. coli [1] (0.30 g/L, pH 4.5); 2.26 in the assay with E. coli [1] (0.30 g/L, pH 6.75); −0.16 with E. coli [1] (0.83 g/L, pH 4.5); 2.25 in the assay on E. coli [1] (0.83 g/L, pH 6.75). Besides, the Δ log stood at 0.71 in the assay with L. plantarum (0.108 g/L, pH 4.5); 0.84 with L. plantarum (0.108 g/L, pH 6.75); 0.70 with L. plantarum (0.30 g/L, pH 4.5); 1.19 in the assay on L. plantarum (0.30 g/L, pH 6.75); 0.52 with L. plantarum (0.83 g/L, pH 4.5); 1.15 with L. plantarum (0.83 g/L, pH 6.75). Besides, the Δ log with C. jejuni (0.108 g/L, pH 4.5) is recorded as −1.37; in the assay with C. jejuni (0.108 g/L, pH 6.75) it was 1.04; in the assay with C. jejuni (0.30 g/L, pH 4.5), −2.60; with C. jejuni (0.30 g/L, pH 6.75) it was 1.15; in the assay on C. jejuni (0.83 g/L, pH 4.5), less than −3.93; in the assay with C. jejuni (0.83 g/L, pH 6.75), 1.02. For the same compound, the Δ log is given as −2.42 with Lactobacillus plantarum (Table 23, 3 g/kg) and −5.91 with Lactobacillus plantarum (Table 23, 5 g/kg). Besides, the “inhibition of E. coli” value was “little or no inhibition” with E. coli [1] (pH 4.5) and “Neither Alimet® nor formic acid inhibited E. coli” with E. coli [1] (pH 6.75). Also, the “log cfu/mL” value in the assay on E. coli [1] (pH 4.5) was 5.19 log cfu/mL and 4.96 log cfu/mL and 5.08 log cfu/mL; with E. coli [1] (pH 6.75) it was 7.48 log cfu/mL and 7.50 log cfu/mL and 7.49 log cfu/mL; in the assay with L. plantarum (pH 4.5), 5.75 log cfu/mL and 5.74 log cfu/mL and 5.56 log cfu/mL; in the assay with C. jejuni (pH 6.75) it was 6.27 log cfu/mL and 6.38 log cfu/mL and 6.25 log cfu/mL. For the same compound, in the assay on E. coli [1] (pH 4.5), the “log reduction of E. coli growth” value is “approximately 0.1 log”. Further, in the assay with L. plantarum, the “inhibition of L. plantarum” value was “Neither Alimet® nor formic acid inhibited L. plantarum”. Moreover, the “inhibition of C. jejuni” value in the assay with C. jejuni (pH 4.5) is reported as “comparable inhibition”. For the same compound, the “antibacterial activity against C. jejuni” value with C. jejuni (pH 6.75) is recorded as “No antibacterial activity”. Besides, the “decrease of colony counts of E. coli vs hydrochloric acid” value in the assay on E. coli [2] is listed as “better than hydrochloric acid”. Moreover, the “effect on inhibiting the growth of S. enteritidis” value in the assay on S. enteritidis (pH 4.5) is reported as “neither had a significant effect”. Besides, the “reduction in S. enteritidis growth” value in the assay on S. enteritidis (pH 4.5) is “approximately 1.2 log cfu/mL”. Besides, in the assay with S. enteritidis (pH 4.5), the “reduction of growth of S. enteritidis” value is on record as “approximately 1.3 log cfu/mL”. Besides, in the assay with S. enteritidis (pH 6.75), the “growth inhibition of S. enteritidis” value is given as roughly 1 log cfu/mL. In the assay on S. enteritidis (pH 6.75), the “inhibition of S. enteritidis” value is listed as “no inhibition”.
As to `CSCCC(N)C(=O)O` (racemic) [DLM, DL-methionine], the “mold growth (CO2 in headspace), words” value was “sharp increase in mold growth after only twenty days” with mold (12.8% moisture, FIG. 11) and “showed mold growth within two days” with mold (16.8% moisture, FIG. 9). Also, in the assay with mold (FIGS. 9, 10, 11, vs untreated and each other), the “mold growth, overall comparison” value is “more likely to develop mold”. For the same compound, the “Total grams consumed, supplemented food” value is reported as 11,244 grams in the assay with dogs (DLM 0.1%), 13,542 grams in the assay on dogs (DLM 0.15%), 1,842 grams in the assay on cats (DLM 0.25%) and 1,754 grams with cats (DLM 0.3%).
